Results on eight molecules are retold here after patent publication US20220340542A1, “SALTS OF OMECAMTIV MECARBIL AND SOLID FORMS THEREOF” (SYNTHON B.V., priority 2019, published 2022).

Each structure is given as a SMILES string. Structures can show the parent of a compound that is named as a salt.

The nature of data set [1]: Solid form stability when kept at elevated temperature and relative humidity. Type of data set: physicochemical. Conditions: 70% to 100% relative humidity, between 20 and 40 days. Here is the method: The Form II can be characterized by XRPD pattern having 2θ values 5.0°, 9.3° and 16.5° degrees 2 theta (f 0.2 degrees 2 theta). The solid Form II can be also characterized by XRPD pattern having 2θ values 5.0°, 9.3°, 16.5°, 18.6° and 24.6° degrees 2 theta (±0.2 degrees 2 theta). The solid form can be further characterized by XRPD pattern described in the following table:
The Form III can be characterized by XRPD pattern having […] 14.3°, 19.3° and 25.8° degrees 2 theta (±0.2 degrees 2 theta). The solid […] can be also characterized by XRPD pattern having 2θ values 5.4°, 7.5°, 14.3°, 19.3° and 25.8° degrees 2 theta (±0.2 degrees 2 theta). The solid form can be further characterized by XRPD pattern described in the following table: […]

Data set [2] is described as follows: Solubility of Omecamtiv mecarbil salts in water solution (aqueous buffer) at different pH. The class given is physicochemical. The note with it: for Category of solubility (Descriptive Term): USP / Ph. Eur. descriptive terms; for Solubility in comparison with Omecamtiv mecarbil dihydrochloride monohydrate salt: water solution at pH 1.2, 4.5 and 6.8. As for the experimental part:
The solubility of prepared salts was tested in water solution at different pH (1.2, 4.5 and 6.8) and compared to Omecamtiv mecarbil dihydrochloride monohydrate salt prepared according to a procedure disclosed in WO2006009726 application. It can be concluded that solubilities of Omecamtiv mecarbil maleic acid salt, Form A, Omecamtiv mecarbil fumaric acid (1:1), Form I, Omecamtiv mecarbil malonic acid (1:1), Form I, Omecamtiv mecarbil adipic acid (1:1.5), Form I, Omecamtiv mecarbil sulfuric acid (1:1), Forms I, II and III salts are lower in comparison with Omecamtiv mecarbil dihydrochloride monohydrate salt.

As to `COC(=O)N1CCN(Cc2cccc(NC(=O)Nc3ccc(C)nc3)c2F)CC1` [Omecamtiv mecarbil sulfuric acid salt], the “Solid form transformation on storage” value in data set [1] (temperature between 40° C. and 80° C.) is recorded as “transformed to Omecamtiv mecarbil sulfuric acid salt, Form III”.
For `COC(=O)N1CCN(Cc2cccc(NC(=O)Nc3ccc(C)nc3)c2F)CC1` [Salt with HC1, Omecamtiv mecarbil dihydrochloride monohydrate salt, reference compound], the “Category of solubility (Descriptive Term)” value (“Category of solubility” below) in data set [2] (aqueous buffer pH 1.2), in data set [2] (aqueous buffer pH 4.5) and in data set [2] (aqueous buffer pH 6.8) was “Freely soluble ((100-1000 mg/mL))” each time.
In the case of `COC(=O)N1CCN(Cc2cccc(NC(=O)Nc3ccc(C)nc3)c2F)CC1` [Salt with adipic acid (1:1.5), Form I, Omecamtiv mecarbil adipic acid (1:1.5) salt], the “Category of solubility” value in data set [2] (aqueous buffer pH 1.2) is listed as “Sparingly soluble ((10-33 mg/mL))”; in data set [2] (aqueous buffer pH 4.5) it was “Sparingly soluble ((10-33 mg/mL))”; in data set [2] (aqueous buffer pH 6.8) it was “Very slightly soluble ((0.1-1 mg/mL))”. Further, the “Solubility in comparison with Omecamtiv mecarbil dihydrochloride monohydrate salt” value (“Solubility in comparison” below) in data set [2] (Form I) is listed as “lower”.
As for `COC(=O)N1CCN(Cc2cccc(NC(=O)Nc3ccc(C)nc3)c2F)CC1` [Salt with fumaric acid (1:1), Form I, Omecamtiv mecarbil fumaric acid (1:1) salt], the results for the “Category of solubility” value in data set [2] (aqueous buffer pH 1.2), in data set [2] (aqueous buffer pH 4.5) and in data set [2] (aqueous buffer pH 6.8) were “Very slightly soluble ((0.1-1 mg/mL))”, “Sparingly soluble ((10-33 mg/mL))” and “Sparingly soluble ((10-33 mg/mL))”, respectively. Moreover, the “Solubility in comparison” value in data set [2] (Form I) is reported as “lower”. In data set [1] (temperature between 40° C. and 70° C.), the “Solid form transformation on storage” value was “transformed to Omecamtiv mecarbil fumaric acid (1:1), Form II”.
As for `COC(=O)N1CCN(Cc2cccc(NC(=O)Nc3ccc(C)nc3)c2F)CC1` [Salt with fumaric acid (1:2), Form I, Omecamtiv mecarbil fumaric acid (1:2) salt], the “Category of solubility” value in data set [2] (aqueous buffer pH 1.2), in data set [2] (aqueous buffer pH 4.5) and in data set [2] (aqueous buffer pH 6.8) was “Freely soluble ((100-1000 mg/mL))” each time. Besides, the “Solubility in comparison” value in data set [2] (Form I) is reported as “comparable”.
`COC(=O)N1CCN(Cc2cccc(NC(=O)Nc3ccc(C)nc3)c2F)CC1` [Salt with maleic acid, Form A, Omecamtiv mecarbil maleic acid salt]: the “Category of solubility” value in data set [2] (aqueous buffer pH 1.2) is on record as “Sparingly soluble ((10-33 mg/mL))”; in data set [2] (aqueous buffer pH 4.5), “Sparingly soluble ((10-33 mg/mL))”; in data set [2] (aqueous buffer pH 6.8), “Very slightly soluble ((0.1-1 mg/mL))”. Besides, in data set [2] (Form A), the “Solubility in comparison” value is “lower”.
Turning to `COC(=O)N1CCN(Cc2cccc(NC(=O)Nc3ccc(C)nc3)c2F)CC1` [Salt with malonic acid (1:1), Form I, Omecamtiv mecarbil malonic acid (1:1) salt], the “Category of solubility” value is given as “Sparingly soluble ((10-33 mg/mL))” in data set [2] (aqueous buffer pH 1.2), “Sparingly soluble ((10-33 mg/mL))” in data set [2] (aqueous buffer pH 4.5) and “Very slightly soluble ((0.1-1 mg/mL))” in data set [2] (aqueous buffer pH 6.8). Further, in data set [2] (Form I), the “Solubility in comparison” value is listed as “lower”.
As to `COC(=O)N1CCN(Cc2cccc(NC(=O)Nc3ccc(C)nc3)c2F)CC1` [Salt with sulfuric acid (1:1), Forms I, II and III] [Omecamtiv mecarbil sulfuric acid salt], the “Category of solubility” value in data set [2] (aqueous buffer pH 1.2), in data set [2] (aqueous buffer pH 4.5) and in data set [2] (aqueous buffer pH 6.8) was “Sparingly soluble ((10-33 mg/mL))” each time. The “Solubility in comparison” value in data set [2] (listed as Omecamtiv mecarbil sulfuric acid (1:1), Forms I, II and III) was “lower”.
